Measurements as given in paper PMC5678437, “A new antagonist for CCR4 attenuates allergic lung inflammation in a mouse model of asthma” (Scientific Reports, 2017).
Read-outs that look alike come from different tables or passages of the source.

What was measured:
[1] = target: T1, CCR3 (Homo sapiens, UniProt P51677); assay: Chemotaxis assay for receptor specificity, HEK293-CCR3; assay type: cell-based; settings: compound as chemoattractant in lower chamber, 0.2, 1, 5, 25 μM
T1 sequence (P51677 1-355): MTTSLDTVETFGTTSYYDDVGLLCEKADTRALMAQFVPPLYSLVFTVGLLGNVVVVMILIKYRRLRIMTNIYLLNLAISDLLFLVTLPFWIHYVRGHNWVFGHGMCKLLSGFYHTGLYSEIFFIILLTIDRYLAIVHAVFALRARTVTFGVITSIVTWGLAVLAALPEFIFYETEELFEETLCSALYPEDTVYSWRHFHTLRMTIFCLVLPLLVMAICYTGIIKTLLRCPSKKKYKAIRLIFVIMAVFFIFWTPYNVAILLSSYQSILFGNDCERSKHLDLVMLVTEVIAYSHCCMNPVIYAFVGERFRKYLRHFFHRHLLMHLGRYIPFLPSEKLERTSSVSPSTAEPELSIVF
Method: HEK293 cells were transfected with different chemokine receptors. Compound 8a with DMSO was diluted to 0.2 mM, 1 mM, 5 mM and 25 mM, and then we used RPMI 1640 medium containing 0.1% BSA for dilution. The final concentration is: 0.2 μM, 1 μM, 5 μM and 25 μM. DMSO was also diluted 1000-fold with 0.1% BSA RPMI 1640 medium. Chemokines was also diluted to an appropriate concentration. The dilutions of Compound 8a, 1‰ DMSO, the corresponding chemokines of different receptors and 0.1% BSA RPMI 1640 medium were placed in the lower chambers (27.5 μl/well). The transfected HEK293 cells were resuspended in the same medium at a density of 1 × 10^6 cells/ml and added to the upper chambers (55 μl/well).

[2] = target: T2, CXCR3 (Homo sapiens, UniProt P49682); assay: Chemotaxis inhibition assay for receptor specificity, HEK293-CXCR3; assay type: cell-based; settings: 0.2, 1, 5, 25 μM, 30 min pretreatment
T2 construct: expressed in transfected cells; host or cells: HEK293; plasmid from Chinese National Human Genome Center
T2 sequence (P49682 1-415 isoform P49682-2): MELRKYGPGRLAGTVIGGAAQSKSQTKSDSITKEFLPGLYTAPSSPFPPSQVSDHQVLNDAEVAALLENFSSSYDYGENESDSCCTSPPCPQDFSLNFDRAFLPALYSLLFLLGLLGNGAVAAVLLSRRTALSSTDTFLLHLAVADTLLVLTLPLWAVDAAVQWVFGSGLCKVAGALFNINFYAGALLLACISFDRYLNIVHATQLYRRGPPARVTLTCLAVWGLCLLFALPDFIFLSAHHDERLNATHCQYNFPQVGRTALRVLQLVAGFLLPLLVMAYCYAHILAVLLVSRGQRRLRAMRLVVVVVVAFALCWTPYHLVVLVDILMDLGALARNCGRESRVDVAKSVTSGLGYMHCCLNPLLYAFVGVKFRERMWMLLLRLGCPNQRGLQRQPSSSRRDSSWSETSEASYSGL
Method: HEK293 cells were transfected with different chemokine receptors. The corresponding chemokines of different receptors were placed in the lower chambers. The transfected cells were pretreated with different concentrations of Compound 8a or 1‰ DMSO for 30 min at a density of 1 × 10^6 cells/ml and added to the upper chambers, the final concentration of the compound is: 0.2 μM, 1 μM, 5 μM, and 25 μM, respectively.

[3] = tested on: OVA-induced asthmatic mice; assay: Airway mucus production (PAS staining) in OVA-induced asthmatic mice; assay type: in vivo, BALB/c mice; settings: compound 8a 0.2, 1, 5 mg; budesonide 5 mg; vs vehicle treated group
Method: Male BALB/c 6 week old mice were purchased from the Experimental Animal Center of Zhejiang University. All mice were raised in a specific pathogen-free animal facility. All animal experiments were carried out according to the guidelines for the care and use of laboratory animals and were approved by the ethics committee of Zhejiang University and Peking University, China.
Mice were sensitized and challenged with chicken egg OVA (sigma-Aldrich, St Louis, MO, USA) as described in details previously. Briefly, after sensitized by intraperitoneal injection of 100 μl (80 μg) OVA in 100 μl alum (Pierce, Rockford, IL, USA) on days 0 and 14, mice were exposure to 1% OVA aerosols for 40 min on days 24–26. Control mice were injected intraperitoneally with saline and exposed to saline aerosols.
Compound 8a was dissolved in saline with DMSO (0.5%). Half an hour before each OVA challenge, the groups of mice treated with various doses of compound 8a (0.2, 1, 5 mg) inhaled aerosolized compound 8a for 45 min on days 24–26. Compound 8a aerosols were produced by using a Plexiglas chamber and ultrasonic nebulizer. […]
After sacrificed, the lungs were fixed in formalin overnight. […] Inflammation was scored according to published guidelines. And PAS-stained goblet cells in airway epithelium were quantified as described previously.

[4] = target: T3, CCR4 (Homo sapiens, UniProt P51679); assay: Radio ligand competition binding assay on CCR4 cell membrane extract; settings: HEK293 CCR4 cell membrane extract, 4 °C, 24 h
T3 construct: expressed in transfected cells; cell membrane extract
T3 sequence (P51679 1-360): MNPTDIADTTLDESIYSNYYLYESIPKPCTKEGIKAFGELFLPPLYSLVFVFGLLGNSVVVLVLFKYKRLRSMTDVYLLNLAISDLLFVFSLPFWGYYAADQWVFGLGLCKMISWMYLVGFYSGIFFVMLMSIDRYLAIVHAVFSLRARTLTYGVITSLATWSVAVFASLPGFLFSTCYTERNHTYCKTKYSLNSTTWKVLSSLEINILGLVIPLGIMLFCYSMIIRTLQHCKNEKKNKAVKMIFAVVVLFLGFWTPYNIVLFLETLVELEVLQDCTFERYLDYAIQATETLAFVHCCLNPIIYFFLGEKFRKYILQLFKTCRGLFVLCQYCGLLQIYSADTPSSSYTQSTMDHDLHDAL
Method: A HEK293 cell line stably expressing CCR4-enhanced green fluorescent protein was established. CCL22, CCL17 and C27 were labeled with [^125I]. For competition binding assays, equivalent quantities of cell membrane extract and [^125I]-CCL22, [^125I]-CCL17 and [^125I]-C27 were incubated with varying quantities of unlabeled compound 8a, compound 6b and compound 22. All reactions were incubated at 4 °C for 24 h. After the binding step, 25% polyethylene glycol (6000–8000) and 0.5% human g-globulin were added, and the mixture was incubated at room temperature for 15 min. Binding complexes were obtained by centrifuging the mixture at 3500 rpm for 20 min at 4 °C, and radioactivity was evaluated. Results were corrected for “blank” background radiation, defined as the radioactivity precipitated by polyethylene glycol–g-globulin from the same amount of radioactive ligand in binding buffer in the absence of cells.

O=C(C1CCCCN1)N1CCN(c2nc(Cl)cc(NCc3ccc(Cl)cc3Cl)n2)CC1 (stereo not drawn) [compound 8a, {4-[4-Chloro-6-(2,4-dichloro-benzylamino)-pyrimidin-2-yl]-piperazin-1-yl}-piperidin-2-yl-methanone]
chemotaxis effect of the compound on HEK293-CCR3 [1]: didn’t exert chemotaxis effects | inhibition of chemotaxis of HEK293-CXCR3 to its ligand [2]: few influence | airway mucus production (PAS-stained cells) [3]: no difference | IC50 ([4]; [125I]-C27, read-out: IC50, competitive binding with C27 to CCR4): 0.062 µM | IC50 ([4]; [125I]-CCL17, read-out: IC50, competitive binding with CCL17 to CCR4): 0.151 µM | IC50 ([4]; [125I]-CCL22, read-out: IC50, competitive binding with CCL22 to CCR4): 0.272 µM
